Laboratory results: ChEMBL document CHEMBL1201862, “PubChem BioAssay data set” (2004)
Active and inactive are the calls of the source.

What was measured:
[1] = Luminescence Cell-Based Dose Response HTS to Identify Activators of Luciferase Translation or Activity in H4 […] Cells. [Related pubchem assays: 1829 (Project Summary), 1814 (Primary HTS)]; type: functional
Cytochrome P450 3A4 = Cytochrome P450 3A4 (Homo sapiens, UniProt P08684);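 further: CYP3A4 tested as one member of a cytochrome P450 panel screen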
Cytochrome P450 2C19 = Cytochrome P450 2C19 (Homo sapiens, UniProt P33261); test: Cytochrome panel assay with activity outcomes. Panel member name: p450-cyp2c19 Compounds with AC50 equal or less than 10 uM are considered active; type: functional
[2] = cytotoxicity toward NIH3T3 fibroblasts, dose response, counter-screen, cell-based, ATP luminescence, mouse fibroblasts (AID 2010); type: functional;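 further: cells exposed to compound for about 90 hours before reading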
[3] = inhibitors of intracellular T. cruzi replication, confirmation, NIH3T3 host cells, beta-gal luminescence (AID 2044); type: functional, cell-based;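 further: intracellular parasites grown in NIH/3T3 mouse fibroblasts as host cells; luminescent beta-galactosidase reporter signal from transgenic T. cruzi replicating inside host cells; inhibitors lower the luminescence signal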
Cytochrome P450 2C9 = Cytochrome P450 2C9 (Homo sapiens, UniProt P11712)
[4] = target: T1, Rac GTPase-activating protein 1 (Homo sapiens, UniProt Q9H0H5); test: MgcRacGAP GTPase-activating activity inhibitors, confirmation, biochemical, ADP Hunter fluorescence, primary and confirmatory (AID 624330); type: functional
T1 sequence (Q9H0H5 whole entry): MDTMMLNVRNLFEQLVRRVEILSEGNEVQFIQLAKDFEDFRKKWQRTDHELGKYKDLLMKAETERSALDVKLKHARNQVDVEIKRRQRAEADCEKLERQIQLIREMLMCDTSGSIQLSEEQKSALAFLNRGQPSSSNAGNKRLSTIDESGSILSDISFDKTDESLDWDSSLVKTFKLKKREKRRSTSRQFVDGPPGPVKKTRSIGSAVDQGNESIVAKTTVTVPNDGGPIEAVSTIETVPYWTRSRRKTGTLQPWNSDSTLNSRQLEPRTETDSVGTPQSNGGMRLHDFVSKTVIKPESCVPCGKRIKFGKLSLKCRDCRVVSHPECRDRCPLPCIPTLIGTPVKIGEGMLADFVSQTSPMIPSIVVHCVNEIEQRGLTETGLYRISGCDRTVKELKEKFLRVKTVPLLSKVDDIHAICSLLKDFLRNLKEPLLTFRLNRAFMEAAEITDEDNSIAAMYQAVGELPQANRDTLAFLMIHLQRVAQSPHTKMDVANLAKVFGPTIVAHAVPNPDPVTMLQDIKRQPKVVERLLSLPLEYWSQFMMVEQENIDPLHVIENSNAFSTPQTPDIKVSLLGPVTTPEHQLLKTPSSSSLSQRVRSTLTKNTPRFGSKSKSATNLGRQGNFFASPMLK

Sequence of Cytochrome P450 2C9 (P11712 whole entry): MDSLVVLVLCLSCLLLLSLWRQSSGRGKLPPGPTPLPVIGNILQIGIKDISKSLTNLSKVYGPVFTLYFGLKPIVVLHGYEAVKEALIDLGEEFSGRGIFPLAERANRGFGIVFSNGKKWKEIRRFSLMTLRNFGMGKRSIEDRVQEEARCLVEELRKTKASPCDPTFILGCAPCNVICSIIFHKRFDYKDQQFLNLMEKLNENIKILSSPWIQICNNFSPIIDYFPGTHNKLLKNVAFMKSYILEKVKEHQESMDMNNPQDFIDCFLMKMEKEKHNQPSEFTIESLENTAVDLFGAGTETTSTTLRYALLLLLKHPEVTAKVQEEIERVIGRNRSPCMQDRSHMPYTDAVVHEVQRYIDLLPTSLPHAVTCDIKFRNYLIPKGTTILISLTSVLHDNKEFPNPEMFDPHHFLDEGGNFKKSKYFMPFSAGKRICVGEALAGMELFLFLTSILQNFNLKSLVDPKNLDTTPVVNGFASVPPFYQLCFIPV
Sequence of Cytochrome P450 3A4 (P08684 whole entry): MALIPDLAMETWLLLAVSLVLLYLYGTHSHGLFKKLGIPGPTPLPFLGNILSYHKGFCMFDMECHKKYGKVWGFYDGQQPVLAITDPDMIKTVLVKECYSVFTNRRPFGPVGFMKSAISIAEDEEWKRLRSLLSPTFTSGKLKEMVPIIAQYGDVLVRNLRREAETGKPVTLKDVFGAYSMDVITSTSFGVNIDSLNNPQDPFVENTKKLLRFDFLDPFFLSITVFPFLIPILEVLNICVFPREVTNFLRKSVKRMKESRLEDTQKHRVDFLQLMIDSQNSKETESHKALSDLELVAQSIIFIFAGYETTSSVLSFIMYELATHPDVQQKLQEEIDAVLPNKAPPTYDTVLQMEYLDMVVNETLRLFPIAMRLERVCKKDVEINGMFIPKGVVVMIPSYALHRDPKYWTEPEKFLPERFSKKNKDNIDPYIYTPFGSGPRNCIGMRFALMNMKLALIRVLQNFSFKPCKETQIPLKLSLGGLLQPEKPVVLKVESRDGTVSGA
Sequence of Cytochrome P450 2C19 (P33261 whole entry): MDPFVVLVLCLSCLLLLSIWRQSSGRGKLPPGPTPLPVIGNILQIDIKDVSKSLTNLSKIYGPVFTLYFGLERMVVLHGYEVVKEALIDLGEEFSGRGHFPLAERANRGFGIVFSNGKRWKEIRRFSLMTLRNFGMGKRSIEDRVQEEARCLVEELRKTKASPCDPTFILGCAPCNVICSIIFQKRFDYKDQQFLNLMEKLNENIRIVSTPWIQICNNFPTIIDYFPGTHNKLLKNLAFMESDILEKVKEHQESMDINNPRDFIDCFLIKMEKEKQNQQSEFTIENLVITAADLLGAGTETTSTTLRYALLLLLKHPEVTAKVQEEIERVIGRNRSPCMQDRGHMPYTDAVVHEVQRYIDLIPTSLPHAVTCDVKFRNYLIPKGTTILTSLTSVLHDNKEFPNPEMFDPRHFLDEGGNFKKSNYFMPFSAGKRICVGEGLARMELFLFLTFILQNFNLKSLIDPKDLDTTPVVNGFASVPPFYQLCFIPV

Cc1ccc(NC(=O)c2ccc(OC(=O)CCN3C(=O)c4ccccc4C3=O)cc2)cc1
EC50 [1]: 37.8 µM (active)

CCNc1ncc2nc(C)c(=O)n(CCc3ccccc3)c2n1
AC50 (Cytochrome P450 3A4): 15.8 µM (inconclusive)

C[C@H]1COC(=O)[C@H]2CCCN2C(=O)[C@@H](C)COC(=O)[C@H](Cc2ccccc2)NC1=O
AC50 (Cytochrome P450 2C19): inconclusive

Cc1ccc(CS(=O)(=O)CCC(=O)NCCCN2CCCC2)cc1
AC50 (Cytochrome P450 2C19): inconclusive

CC(=O)OC1COC(N2CCc3cc([N+](=O)[O-])ccc32)C(OC(C)=O)C1OC(C)=O (stereo not drawn)
AC50 (Cytochrome P450 3A4): 25.1 µM (inconclusive) | AC50 (Cytochrome P450 2C19; read-out: AC50): 3.98 µM (inconclusive)

CCCn1c2c(c(O)c(C(=O)Nc3ccc(OC)cc3)c1=O)CCCC2
EC50 [2]: > 30 µM (not active) | EC50 [3]: 2880 nM (active)

COc1ccc2oc(C(=O)c3ccccc3)c(N)c2c1
AC50 (Cytochrome P450 3A4): 14.1 µM (inconclusive) | AC50 (Cytochrome P450 2C19; read-out: AC50): 5.01 µM (inconclusive)

CN(C)c1nc(NC(C)(C)C)nc(NC(C)(C)C)n1
EC50 [2]: > 60 µM (not active) | EC50 [3]: 596 nM (active)

Cc1[nH]c2ccccc2c1C(=O)CN1CC=C(c2ccccc2)CC1
EC50 [2]: > 60 µM (not active) | EC50 [3]: 857 nM (active)

CCc1cccc(CN2CCC(CNC(=O)Nc3ccc(Cl)cc3)CC2)c1
EC50 [2]: > 60 µM (not active) | EC50 [3]: 1250 nM (active)

COC(=O)C1CCN(c2cc(=O)n(C3CCCCC3)c(=O)[nH]2)CC1
AC50 (Cytochrome P450 2C9): 7.94 µM (inconclusive) | AC50 (Cytochrome P450 3A4): 14.1 µM (inconclusive)

CC(C)C(=O)Nc1ccc(C(=O)NNC(=O)CCCOc2ccc(Cl)cc2Cl)cc1
AC50 (Cytochrome P450 2C9): 2.51 µM (inconclusive)

Cc1ccccc1-c1ccc2ncnc(N3CCNCC3)c2c1
AC50 (Cytochrome P450 3A4): 15.8 µM (inconclusive) | AC50 (Cytochrome P450 2C19; read-out: AC50): 15.8 µM (inconclusive)

O=C1CN2CCN(CC2)CC(=O)Nc2ccc(cc2)S(=O)(=O)c2ccc(cc2)NC(=O)CN2CCN(CC2)CC(=O)Nc2ccc(cc2)S(=O)(=O)c2ccc(cc2)N1
AC50 (Cytochrome P450 2C9): 0.398 µM (inconclusive)

Nc1ccc(Oc2ccc3nc(-c4ccccc4)c(-c4ccc([N+](=O)[O-])cc4)nc3c2)cc1
AC50 (Cytochrome P450 2C9): 3.98 µM (inconclusive)

O=C(c1cc(-c2ccncc2)nc2ccccc12)N1CCN(c2ccc(N3CCOCC3)nn2)CC1
AC50 (Cytochrome P450 2C19; read-out: AC50): 15.8 µM (inconclusive)

COc1ccc(OC)c(CN2CCN(Cc3cccc4ccccc34)CC2)c1
IC50 [4]: 66 µM (active)

COc1ccccc1N1CCN(CC(=O)c2ccc(F)cc2)CC1
IC50 [4]: 157 µM (active)

COc1ccc(CNC(=O)C2CCCN(Cc3nc(-c4cccc(C)c4)oc3C)C2)cc1 (stereo not drawn)
EC50 [2]: > 60 µM (not active) | EC50 [3]: 381 nM (active)

COc1ccc(NC2CCCN(C(=O)CCCn3cncn3)C2)cc1OC (stereo not drawn)
IC50 [4]: 237 µM (active)

CCN(CC)S(=O)(=O)N1CCC(C(=O)NCc2ccc(C)cc2)CC1
AC50 (Cytochrome P450 2C19): inconclusive

Cc1cc(Br)ccc1NC(=O)CCSc1ccccc1
AC50 (Cytochrome P450 3A4): 6.31 µM (inconclusive)

COc1ccccc1-c1cncnc1NCCc1cnc[nH]1
AC50 (Cytochrome P450 2C9): 0.501 µM (inconclusive)

O=c1c(-c2cccc(Cl)c2)nc2cncnc2n1-c1ccccc1
AC50 (Cytochrome P450 3A4): 25.1 µM (inconclusive)

CN1CCN(c2ncnc3ccc(-c4ccc5c(c4)OCO5)cc23)CC1
AC50 (Cytochrome P450 2C19; read-out: AC50): 39.8 µM (inconclusive)

CCCCOC(=O)CSc1nnc(-c2cc(OC)c(OC)c(OC)c2)o1
AC50 (Cytochrome P450 2C9): 8.91 µM (inconclusive) | AC50 (Cytochrome P450 3A4): 25.1 µM (inconclusive)

CN1CCN(CCOCCOc2ccc(Br)cc2Cl)CC1
IC50 [4]: 84.1 µM (active)

Cc1nn(C(C)C(=O)N2CCCC2)c(=O)c2nn(-c3ccccc3)c(C)c12 (stereo not drawn)
EC50 [2]: > 60 µM (not active) | EC50 [3]: 48400 nM (active)

COc1cc(C(=O)Nc2ccc3c(c2)N(C(=O)CCN(C)C)c2ccccc2CC3)cc(OC)c1OC
EC50 [2]: > 60 µM (not active) | EC50 [3]: 642 nM (active)

COCCNCc1nc(O)c2c(-c3ccccc3)c(C)sc2n1
IC50 [4]: 225 µM (active)

CS(=O)(=O)N1CCC2(CC1)CN(c1ncccn1)C2
AC50 (Cytochrome P450 3A4): 20 µM (inconclusive)

COC(=O)[C@@]1(Cc2ccc(F)cc2)[C@@H]2C(=CC(=O)[C@H]2CC(=O)C(=O)N2CCCC2)CN1C(=O)c1ccccc1
AC50 (Cytochrome P450 3A4): 5.01 µM (inconclusive)

CCOC(=O)c1cc(NC(=O)c2ccc(OC)cc2)c(=O)oc1-c1ccccc1
AC50 (Cytochrome P450 2C9): 2.24 µM (inconclusive)

CN(Cc1ccco1)c1ncncc1-c1ccc2c(c1)OCO2
AC50 (Cytochrome P450 2C9): 0.794 µM (inconclusive)

Cc1cc(/C=C2/NC(=O)N(Cc3ccccc3F)C2=O)c(C)n1C(C)C
EC50 [2]: > 60 µM (not active) | EC50 [3]: 154 nM (active)

CCC(O)CNc1nc(-n2nc(C)cc2C)nc2sc3c(c12)CC(C)(C)OC3 (stereo not drawn)
AC50 (Cytochrome P450 3A4): 7.08 µM (inconclusive) | AC50 (Cytochrome P450 2C19; read-out: AC50): 20 µM (inconclusive)

CSc1nc(N)nc(SCC(=O)C23CC4CC(CC(C4)C2)C3)c1C#N
EC50 [2]: > 60 µM (not active) | EC50 [3]: 1590 nM (active)

COc1cc(OC)c(OC)cc1CN1CCN(C(=O)c2cccc3ccccc23)CC1
IC50 [4]: 244 µM (active)

COc1ccc(-c2cnc(N)nc2-c2ccc(OCc3ccccc3)cc2O)cc1
EC50 [2]: 10.6 µM (active) | EC50 [3]: 2190 nM (active)

O=C(CN(c1ccccc1)S(=O)(=O)c1ccccc1[N+](=O)[O-])NN=C1CCCCCCC1
AC50 (Cytochrome P450 2C9): 1.58 µM (inconclusive)

O=C(Nc1ccccc1N1CCCC1)c1ccc([N+](=O)[O-])cc1Cl
EC50 [2]: > 60 µM (not active) | EC50 [3]: 2370 nM (active)

Cc1noc(C)c1C(=O)N1CCC2(CCN(Cc3ccncc3)CC2)CC1
AC50 (Cytochrome P450 3A4): 12.6 µM (inconclusive)

CCCN1CCC(N(C)CCc2ccc(OC)c(OC)c2)CC1
EC50 [2]: > 60 µM (not active) | EC50 [3]: 124 nM (active)

CCC(=O)NC(Nc1sc2c(c1C(=O)OC)CCCC2)(C(F)(F)F)C(F)(F)F
AC50 (Cytochrome P450 2C9): 1.26 µM (inconclusive)

O=C(CSc1ccc2ccccc2c1)N1CCN(c2ccc(O)cc2)CC1
IC50 [4]: 45.1 µM (active)

CCOC(=O)Nc1ccc2c(c1)N(C(=O)CCN1CCN(C)CC1)c1ccccc1S2
AC50 (Cytochrome P450 3A4): 1.26 µM (inconclusive) | AC50 (Cytochrome P450 2C19; read-out: AC50): 1.26 µM (inconclusive)

Cn1nc([N+](=O)[O-])nc1Sc1ccc(Cl)cc1
EC50 [2]: > 30 µM (not active) | EC50 [3]: 108 nM (active)

CCC(=O)N[C@@H]1CCc2cccc(OC)c2C1
AC50 (Cytochrome P450 2C9): 15.8 µM (inconclusive)

CCCCNC(=O)C1CCN(Cc2ccccn2)CC1
AC50 (Cytochrome P450 2C19; read-out: AC50): 35.5 µM (inconclusive)

CCN(CC)CCN(C(=O)c1cccc([N+](=O)[O-])c1)c1nc2ccc(OC)cc2s1
EC50 [2]: > 60 µM (inconclusive) | EC50 [3]: 158 nM (active)

CCOC(=O)c1sc(NC(=O)CCCCCN2C(=O)c3cccc4cccc(c34)C2=O)nc1C
AC50 (Cytochrome P450 2C9): 2.24 µM (inconclusive) | AC50 (Cytochrome P450 3A4): 5.01 µM (inconclusive) | AC50 (Cytochrome P450 2C19; read-out: AC50): 6.31 µM (inconclusive)

CC(C)CC1NC(=S)N(C2CCCCC2)C1=O (stereo not drawn)
AC50 (Cytochrome P450 3A4): 20 µM (inconclusive)

CC(C)(C)C(=O)OCc1cn(-c2ccc(Cl)cc2)nn1
AC50 (Cytochrome P450 2C9): 28.2 µM (inconclusive)

Cc1ccccc1-c1ccc2ncnc(NCc3cccs3)c2c1
AC50 (Cytochrome P450 2C9): 1.26 µM (inconclusive)

O=C(O)C1CCN(c2ncccn2)CC1
AC50 (Cytochrome P450 2C19; read-out: AC50): 0.0316 µM (inconclusive)

CC(=O)c1cccc(Nc2cc(C)nc3c(C)cc(C)cc23)c1
EC50 [2]: > 60 µM (inconclusive) | EC50 [3]: 1420 nM (active)

O=C(NC1CCCCC1)C(c1ccccc1)N1CCOCC1 (stereo not drawn)
AC50 (Cytochrome P450 2C19; read-out: AC50): 20 µM (inconclusive)

COc1cc(C(=O)N/N=C(\C)c2ccc(NC(=O)Cc3ccccc3)cc2)ccc1O
IC50 [4]: 145 µM (active)

CN(C)/N=C/c1ccc(OC(=O)c2cccc([N+](=O)[O-])c2)cc1
IC50 [4]: 50.4 µM (active)

Cc1ccc(/C=N/n2c(S)nnc2COc2ccccc2)s1
AC50 (Cytochrome P450 2C19; read-out: AC50): 2.24 µM (inconclusive)

COc1ccc(CNc2ncncc2-c2ccccc2OC)c(OC)c1
AC50 (Cytochrome P450 2C9): 0.794 µM (inconclusive)

C[N+]1(C)CCN(c2ccccc2)CC1 [DIMETHYLPHENYLPIPERAZINIUM]
AC50 (Cytochrome P450 3A4): 10 µM (inconclusive)

O=C1C[C@@H](c2ccc(O)cc2)Oc2cc(O)cc(O)c21 [NARINGENIN]
AC50 (Cytochrome P450 2C19; read-out: AC50): 3.98 µM (inconclusive)

CC(=O)Oc1cc(C(F)(F)F)ccc1C(=O)O [TRIFLUSAL]
AC50 (Cytochrome P450 2C19; read-out: AC50): 3.98 µM (inconclusive)
